Laboratory results reported in the supplement of paper PMC4862054.
“And” between values parts separate entries of the source, which are not always exact repeats. Identical values can stand only once.

Tests used:
Conditions in all cases: incubation time: 72 h
[1] = tested on: Hs578T; assay: normalised viability (% of control), CellTiter-Blue; higher = more viable cells (100 = DMSO, 0 = benzethonium chloride kill control)
Description: (§1)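 DSRT, CellTiter-Blue viability, 72 h incubation. Signal is normalised to DMSO and benzethonium chloride controls. Value is the normalised response at dose 1.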

[2] = tested on: CAL-51; assay: as above
Description: as §1

[3] = tested on: MFM-223; assay: as above
Description: as §1

[4] = tested on: HCC1937; assay: as above
Description: as §1

[5] = tested on: BT-549; assay: as above
Description: as §1

[6] = tested on: CAL-85-1; assay: as above
Description: as §1

[7] = tested on: CAL-148; assay: as above
Description: as §1

[8] = tested on: MDA-MB-436; assay: as above
Description: as §1

[9] = tested on: HCC1599; assay: as above
Description: as §1

[10] = tested on: DU-4475; assay: as above
Description: as §1

[11] = tested on: MDA-MB-231; assay: as above
Description: as §1

[12] = tested on: BT-474; assay: as above
Description: as §1

[13] = tested on: SK-BR-3; assay: as above
Description: as §1

[14] = tested on: MDA-MB-453; assay: as above
Description: as §1

[15] = tested on: HDQ-P1; assay: as above
Description: as §1

[16] = tested on: CAL-120; assay: as above
Description: as §1

[17] = tested on: HCC1143; assay: as above
Description: as §1

[18] = tested on: MDA-MB-468; assay: as above
Description: as §1

[19] = tested on: CAL-85-1; assay: drug sensitivity score (DSS), CellTiter-Blue viability (DSS (AUC-based score)); higher = stronger viability inhibition; extreme values may be limits of the assay
Description: (§2)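 DSRT with the CellTiter-Blue (resazurin reduction) viability readout, fluorescence 560/590 nm, 72 h incubation. Plates were normalised to DMSO and benzethonium chloride controls. DSS is computed from the area under the fitted dose-response curve (5 or 9 concentrations).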

[20] = tested on: MDA-MB-436; assay: as above
Description: as §2

[21] = tested on: HCC1599; assay: as above
Description: as §2

[22] = tested on: DU-4475; assay: as above
Description: as §2

[23] = tested on: MDA-MB-231; assay: as above
Description: as §2

[24] = tested on: BT-474; assay: as above
Description: as §2

[25] = tested on: SK-BR-3; assay: as above
Description: as §2

[26] = tested on: MDA-MB-453; assay: as above
Description: as §2

[27] = tested on: HDQ-P1; assay: as above
Description: as §2

Row | SMILES | drug sensitivity score [19] | drug sensitivity score [20] | drug sensitivity score [21] | drug sensitivity score [22] | drug sensitivity score [23] | drug sensitivity score [24] | drug sensitivity score [25] | drug sensitivity score [26] | drug sensitivity score [27] | normalised viability ([1]; 1 nM) | normalised viability ([2]; 1 nM) | normalised viability ([3]; 1 nM) | normalised viability ([4]; 1 nM) | normalised viability ([5]; 1 nM) | normalised viability ([6]; 1 nM) | normalised viability ([7]; 1 nM) | normalised viability ([8]; 1 nM) | normalised viability ([9]; 1 nM) | normalised viability ([10]; 1 nM) | normalised viability ([11]; 1 nM) | also measured
1 | Cc1cccc(-c2nn3c(c2-c2ccnc4ccc(C(N)=O)cc24)CCC3)n1 | 0 | 0 | 0 | 0 | 0 | 0 | 0 | 0 | 0 | – | – | – | – | – | – | – | – | – | – | – | normalised viability ([1]; 0.1 nM): 113%; normalised viability ([2]; 0.1 nM): 93.5%; normalised viability ([3]; 0.1 nM): 103%; normalised viability ([4]; 0.1 nM): 91.3%; normalised viability ([5]; 0.1 nM): 104%; normalised viability ([6]; 0.1 nM): 92.6%; normalised viability ([7]; 0.1 nM): 104%; normalised viability ([8]; 0.1 nM): 128%; normalised viability ([9]; 0.1 nM): 99.3%; normalised viability ([10]; 0.1 nM): 113%; normalised viability ([11]; 0.1 nM): 113%; normalised viability ([12]; 0.1 nM): 116%; normalised viability ([13]; 0.1 nM): 106%; normalised viability ([14]; 0.1 nM): 108%; normalised viability ([15]; 0.1 nM): 109%; normalised viability ([16]; 0.1 nM): 98.2%; normalised viability ([17]; 0.1 nM): 110%; normalised viability ([18]; 0.1 nM): 108%
2 | Nc1cccc2c1CN(C1CCC(=O)NC1=O)C2=O (configuration not stated) [Lenalidomide] | 0 | 0 | 0 | 0 | 0 | 0 | 0 | 0 | 0 | 97.1% and 106% | 104% and 105% | 89.4% and 94.1% | 90.1% and 78% | 108% and 115% | 79.2% and 80.7% | 92.4% and 102% | 97.6% and 82.2% | 92.1% and 98.5% | 99% and 102% | 85.2% and 82.6% | normalised viability ([12]; 1 nM): 93.9% and 73.5%; normalised viability ([13]; 1 nM): 94.7% and 87.4%; normalised viability ([14]; 1 nM): 87.5% and 104%; normalised viability ([15]; 1 nM): 86.6% and 103%; normalised viability ([16]; 1 nM): 76.8% and 81.8%; normalised viability ([17]; 1 nM): 85.5% and 80.6%; normalised viability ([18]; 1 nM): 99.6% and 98.9%
3 | O=C1c2c(O)ccc(O)c2C(=O)c2c(NCCNCCO)ccc(NCCNCCO)c21 [Mitoxantrone] | 5.25 | 3.16 | 4.36 | 22.7 | 11.8 | 6.48 | 15.3 | 4.9 | 8.81 | – | – | – | – | – | – | – | – | – | – | – | normalised viability ([1]; 0.1 nM): 93.6%; normalised viability ([2]; 0.1 nM): 109%; normalised viability ([3]; 0.1 nM): 84.2%; normalised viability ([4]; 0.1 nM): 92.5%; normalised viability ([5]; 0.1 nM): 90.5%; normalised viability ([6]; 0.1 nM): 80.5%; normalised viability ([7]; 0.1 nM): 108%; normalised viability ([8]; 0.1 nM): 121%; normalised viability ([9]; 0.1 nM): 92.1%; normalised viability ([10]; 0.1 nM): 102%; normalised viability ([11]; 0.1 nM): 87.4%; normalised viability ([12]; 0.1 nM): 75.9%; normalised viability ([13]; 0.1 nM): 108%; normalised viability ([14]; 0.1 nM): 90.6%; normalised viability ([15]; 0.1 nM): 101%; normalised viability ([16]; 0.1 nM): 74.6%; normalised viability ([17]; 0.1 nM): 79.2%; normalised viability ([18]; 0.1 nM): 90.7%
4 | Nc1ccccc1NC(=O)c1ccc(CNc2nccc(-c3cccnc3)n2)cc1 [Mocetinostat] | 8.63 | 9.06 | 10.1 | 12.9 | 6.93 | 2.91 | 10.9 | 12.8 | 2.86 | 113% | 93.6% | 91.2% | 90.8% | 117% | 91.8% | 107% | 99.2% | 92.2% | 91.3% | 110% | normalised viability ([12]; 1 nM): 107%; normalised viability ([13]; 1 nM): 93%; normalised viability ([14]; 1 nM): 92.5%; normalised viability ([15]; 1 nM): 84.2%; normalised viability ([16]; 1 nM): 81.7%; normalised viability ([17]; 1 nM): 91.1%; normalised viability ([18]; 1 nM): 92%
5 | C[C@]12C=CC(=O)C=C1CC[C@@H]1[C@@H]2[C@@H](O)C[C@@]2(C)[C@H]1CC[C@]2(O)C(=O)CO [Prednisolone] | 0 | 0 | 0 | 0 | 0 | 0 | 0 | 4.2 | 0 | 122% | 104% | 102% | 88.8% | 101% | 97.7% | 111% | 108% | 118% | 95.6% | 105% | normalised viability ([12]; 1 nM): 117%; normalised viability ([13]; 1 nM): 130%; normalised viability ([14]; 1 nM): 100%; normalised viability ([15]; 1 nM): 85.7%; normalised viability ([16]; 1 nM): 83.5%; normalised viability ([17]; 1 nM): 95.1%; normalised viability ([18]; 1 nM): 109%
6 | Nc1nc(=O)c2c([nH]1)NCC(CNc1ccc(C(=O)N[C@@H](CCC(=O)O)C(=O)O)cc1)N2C=O (mixture of isomers) [Folinic acid] | 0 | 0 | 0 | 0 | 0 | 0 | 0 | 0 | 0 | – | – | – | – | – | – | – | – | – | – | – | normalised viability ([1]; 0.099 nM): 105%; normalised viability ([2]; 0.099 nM): 92.7%; normalised viability ([3]; 0.099 nM): 105%; normalised viability ([4]; 0.099 nM): 95.9%; normalised viability ([5]; 0.099 nM): 94.1%; normalised viability ([6]; 0.099 nM): 98.4%; normalised viability ([7]; 0.099 nM): 102%; normalised viability ([8]; 0.099 nM): 113%; normalised viability ([9]; 0.099 nM): 117%; normalised viability ([10]; 0.099 nM): 113%; normalised viability ([11]; 0.099 nM): 101%; normalised viability ([12]; 0.099 nM): 91.7%; normalised viability ([13]; 0.099 nM): 112%; normalised viability ([14]; 0.099 nM): 104%; normalised viability ([15]; 0.099 nM): 131%; normalised viability ([16]; 0.099 nM): 95.4%; normalised viability ([17]; 0.099 nM): 107%; normalised viability ([18]; 0.099 nM): 117%
